Tests used:
[1] = tested on: LN229 microcancer spheroids; experiment: On-chip drug testing of LN229 microcancer spheroids in microchip hanging drop 3D culture; assay type: cell-based; settings: Homo sapiens, LN-229; measured on day 9 post cell seeding; drug loaded on day 3; 500 cells/well; 12 wells per concentration, 10 uM to 100 pM
Text: In contrast, conventional hanging drop methods used to extract the formed tumor spheroids and then performing an end-point only analysis in a separate well plate. Dasatinib was selected for drug testing, and introduced after 3 days of culture in the chip. […] One process for introducing the drugs on chip is as follows. The chip was kept upright inside mineral oil and centrifuged briefly to bring down the spheroids. Next, appropriate volume of media with drugs is loaded on chip through oil and incubated for 30 minutes to reach a homogeneous concentration. […] The chip was partitioned as before by using oil, inverted, and daily measurements of green and red fluorescence were taken. […]
The total number of cells were extracted from the off-chip culture into a 1.7 mL tube and then centrifuged at 200 g for 5 min so that all cells settle to the bottom of the tube. […] To stop the PKH 26 Red Fluorescence staining, media with FBS was added to the cell and dye solution. […]
Spheroid Imaging: Real time imaging was done daily after seeding with an upright Olympus BX63 fluorescence microscope with a 10× objective (0.3 NA). […] Tiles and Z-stacks of 10 um slice thickness of the area with spheroids or shapes were taken of chips in bright-field, GFP and RFP fluorescence wavelengths. The CellTox green fluorescence dye was captured using the GFP fluorescence and the PKH Red dye was captured using the RFP. […]

[2] = tested on: PDX microcancers (GBM8 patient-derived xenograft glioblastoma cells); experiment: On-chip drug testing of PDX microcancer spheroids in microchip hanging drop 3D culture; assay type: cell-based; settings: Homo sapiens; measured on day 9 post cell seeding; drug loaded on day 3; 500 cells/well; 12 wells per concentration, 10 uM to 100 pM
Method: The harvest cells from the xenograft represented the cellular diversity of the PDX brain tumor.
Dasatinib was selected for drug testing, and introduced after 3 days of culture in the chip. […] One process for introducing the drugs on chip is as follows. The chip was kept upright inside mineral oil and centrifuged briefly to bring down the spheroids. Next, appropriate volume of media with drugs is loaded on chip through oil and incubated for 30 minutes to reach a homogeneous concentration. The volume of drugs loaded depends on the number of spheroids being cultured or wells filled with media on chip, which in turn, are defined by the size and numbers of PDMS reservoirs initially used for cell seeding. The volume of media with drugs added is usually 5 times the volume of wells containing spheroids. […] The chip was partitioned as before by using oil, inverted, and daily measurements of green and red fluorescence were taken.

Cc1nc(Nc2ncc(C(=O)Nc3c(C)cccc3Cl)s2)cc(N2CCN(CCO)CC2)n1 [Dasatinib]
IC50 [1]: 95.9 nM
IC50 [2]: 13.8 nM

From patent US11845084B2, “Microchip high density hanging drop three-dimension culture platform” (The Board of Trustees of the University of Illinois, priority 2020, dated 2023)
